Experiments:
MDA-MB-453 [1] = assay: drug sensitivity score (DSS), single agent (DSS (weighted AUC score)); higher = more sensitive (stronger viability decrease); extreme values may be limits of the assay; conditions: BLU9931 0 nM; 72 h
Outline: (§1)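 Drug sensitivity scores come from a weighted area under a four-parameter logistic fit to percent viability, normalised per plate to control wells. Viability was based on cellular ATP read with CellTiterGlo 2.0 after 72 h at 37 °C, 5% CO2. Each 384-well plate carried FIMM Oncology set compounds in singlicate at five 10-fold dilutions, with 2000 MDA-MB-453 cells per well in medium with or without an FGFR4 inhibitor at 100 nM final.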

MDA-MB-453 [2] = assay: drug sensitivity score (DSS), in combination with BLU9931 (DSS (weighted AUC score)); higher = more sensitive (stronger viability decrease); extreme values may be limits of the assay; conditions: BLU9931 100 nM; 72 h
Outline: as §1

Which results are given for `CO[C@H]1C[C@@H]2CC[C@@H](C)[C@@](O)(O2)C(=O)C(=O)N2CCCC[C@H]2C(=O)O[C@H]([C@H](C)C[C@@H]2CC[C@@H](OCCO)[C@H](OC)C2)CC(=O)[C@H](C)/C=C(\C)[C@@H](O)[C@@H](OC)C(=O)[C@H](C)C[C@H](C)/C=C/C=C/C=C/1C` [Everolimus]?
drug sensitivity score (MDA-MB-453 [1]): 9.5; drug sensitivity score (MDA-MB-453 [2]): 13.6

For `C=C1C[C@@H]2[C@H](CC[C@]3(C)C(=O)CC[C@@H]23)[C@@]2(C)C=CC(=O)C=C12` [Exemestane], which drug sensitivity score (MDA-MB-453 [1]) is on record?
The drug sensitivity score was 4.8.

What about the drug sensitivity score (MDA-MB-453 [2]) of the same compound?
Its drug sensitivity score is 0.

With `CCn1c(=O)c(-c2ccc(Cl)cc2Cl)cc2cnc(Nc3ccc(N4CCNCC4)c(F)c3)nc21` [FRAX486] as the compound, how does the drug sensitivity score (MDA-MB-453 [1]) read?
The drug sensitivity score was 3.9.

And the drug sensitivity score (MDA-MB-453 [2])?
The drug sensitivity score was 1.1.

For `Cc1cnc(Nc2ccc(OCCN3CCCC3)cc2)nc1Nc1cccc(S(=O)(=O)NC(C)(C)C)c1` [Fedratinib], which drug sensitivity score (MDA-MB-453 [1]) is on record?
The drug sensitivity score was 8.3.

And the drug sensitivity score (MDA-MB-453 [2])?
Its drug sensitivity score is 6.3.

What does the source list for `CON(C)C(=O)N1N=C(c2cc(F)ccc2F)S[C@@]1(CCCN)c1ccccc1` [Filanesib]?
drug sensitivity score (MDA-MB-453 [1]): 16.7; drug sensitivity score (MDA-MB-453 [2]): 15.3

For `O=C(Nc1nc2cccc(-c3ccc(CN4CCS(=O)(=O)CC4)cc3)n2n1)C1CC1` [Filgotinib], which drug sensitivity score (MDA-MB-453 [1]) is on record?
Its drug sensitivity score is 2.9.

And the drug sensitivity score (MDA-MB-453 [2])?
The drug sensitivity score was 2.5.

With `CC(C)(C)NC(=O)[C@H]1CC[C@H]2[C@@H]3CC[C@H]4NC(=O)C=C[C@]4(C)[C@H]3CC[C@]12C` [Finasteride] as the compound, how does the drug sensitivity score (MDA-MB-453 [1]) read?
Its drug sensitivity score is 0.3.

What about the drug sensitivity score (MDA-MB-453 [2]) of the same compound?
The drug sensitivity score was 0.

With `CCCCCCCCc1ccc(CCC(N)(CO)CO)cc1` [Fingolimod] as the compound, how does the drug sensitivity score (MDA-MB-453 [1]) read?
The drug sensitivity score was 8.7.

What about the drug sensitivity score (MDA-MB-453 [2]) of the same compound?
Its drug sensitivity score is 7.7.

`O=c1[nH]c(=O)n([C@H]2C[C@H](O)[C@@H](CO)O2)cc1F` [Floxuridine] was tested. Which drug sensitivity score (MDA-MB-453 [1]) did it give?
Its drug sensitivity score is 4.9.

And the drug sensitivity score (MDA-MB-453 [2])?
Its drug sensitivity score is 2.

`Nc1nc(F)nc2c1ncn2[C@@H]1O[C@H](CO)[C@@H](O)[C@@H]1O` [Fludarabine] was tested. Which drug sensitivity score (MDA-MB-453 [1]) did it give?
Its drug sensitivity score is 0.

And the drug sensitivity score (MDA-MB-453 [2])?
The drug sensitivity score was 0.

What does the source list for `O=c1[nH]cc(F)c(=O)[nH]1` [Fluorouracil]?
drug sensitivity score (MDA-MB-453 [1]): 2.1; drug sensitivity score (MDA-MB-453 [2]): 0.1

How did the drug sensitivity score (MDA-MB-453 [1]) turn out when `CC(C)C(=O)Nc1ccc([N+](=O)[O-])c(C(F)(F)F)c1` [Flutamide] was run?
The drug sensitivity score was 0.

And the drug sensitivity score (MDA-MB-453 [2])?
Its drug sensitivity score is 0.

What does the source list for `COc1cc2c(Oc3ccc(NC(=O)C4(C(=O)Nc5ccc(F)cc5)CC4)cc3F)ccnc2cc1OCCCN1CCOCC1` [Foretinib]?
drug sensitivity score (MDA-MB-453 [1]): 1.1; drug sensitivity score (MDA-MB-453 [2]): 1.2

What does the source list for `COc1cc(Nc2ncc(F)c(Nc3ccc4c(n3)N(COP(=O)(O)O)C(=O)C(C)(C)O4)n2)cc(OC)c1OC` [Fostamatinib]?
drug sensitivity score (MDA-MB-453 [1]): 0.1; drug sensitivity score (MDA-MB-453 [2]): 0

Which drug sensitivity score (MDA-MB-453 [1]) does the source give for `C[C@]12CC[C@@H]3c4ccc(O)cc4C[C@@H](CCCCCCCCC[S+]([O-])CCCC(F)(F)C(F)(F)F)[C@H]3[C@@H]1CC[C@@H]2O` (some centres undefined) [Fulvestrant] here?
The drug sensitivity score was 0.

What about the drug sensitivity score (MDA-MB-453 [2]) of the same compound?
Its drug sensitivity score is 0.

For `CC1(C)OCCn2c1nc1c(N3CCOCC3)nc(-c3cnc(N)nc3)nc12` [GDC-0084], which drug sensitivity score (MDA-MB-453 [1]) is on record?
The drug sensitivity score was 16.4.

And the drug sensitivity score (MDA-MB-453 [2])?
The drug sensitivity score was 17.4.

With `O=C(NOCCO)c1ccc2cncn2c1Nc1ccc(I)cc1F` [GDC-0623] as the compound, how does the drug sensitivity score (MDA-MB-453 [1]) read?
Its drug sensitivity score is 0.4.

And the drug sensitivity score (MDA-MB-453 [2])?
The drug sensitivity score was 0.5.

Which drug sensitivity score (MDA-MB-453 [1]) does the source give for `C[C@H]1CN(C2COC2)CCN1c1ccc(Nc2cc(-c3ccnc(N4CCn5c(cc6c5CC(C)(C)C6)C4=O)c3CO)cn(C)c2=O)nc1` [GDC-0853] here?
Its drug sensitivity score is 0.

And the drug sensitivity score (MDA-MB-453 [2])?
The drug sensitivity score was 0.

How did the drug sensitivity score (MDA-MB-453 [1]) turn out when `O[C@H](C[C@H]1c2c(F)cccc2-c2cncn21)[C@H]1CC[C@H](O)CC1` [GDC-0919] was run?
The drug sensitivity score was 0.

And the drug sensitivity score (MDA-MB-453 [2])?
Its drug sensitivity score is 0.

Which drug sensitivity score (MDA-MB-453 [1]) does the source give for `CNc1nc(Nc2cn(C(C)(C)C#N)nc2C)ncc1C(F)(F)F` [GNE-0877] here?
Its drug sensitivity score is 0.

What about the drug sensitivity score (MDA-MB-453 [2]) of the same compound?
Its drug sensitivity score is 0.

With `CCNc1nc(Nc2cc(F)c(C(=O)N3CCOCC3)cc2OC)ncc1C(F)(F)F` [GNE-7915] as the compound, how does the drug sensitivity score (MDA-MB-453 [1]) read?
Its drug sensitivity score is 0.

What about the drug sensitivity score (MDA-MB-453 [2]) of the same compound?
Its drug sensitivity score is 0.

For `CCCc1cc(C)[nH]c(=O)c1CNC(=O)c1cc(-c2ccnc(N3CCN(C)CC3)c2)cc2c1cnn2C(C)C` [GSK343], which drug sensitivity score (MDA-MB-453 [1]) is on record?
The drug sensitivity score was 0.

What about the drug sensitivity score (MDA-MB-453 [2]) of the same compound?
The drug sensitivity score was 0.

Which drug sensitivity score (MDA-MB-453 [1]) does the source give for `CCCOc1ccn2c(C(C)=O)cc(-c3ccccc3S(C)(=O)=O)c2c1` [GSK2801] here?
The drug sensitivity score was 0.

And the drug sensitivity score (MDA-MB-453 [2])?
Its drug sensitivity score is 0.

`CCOC(=O)CCNc1cc(N2CCc3ccccc3CC2)nc(-c2ccccn2)n1` [GSK-J4] was tested. Which drug sensitivity score (MDA-MB-453 [1]) did it give?
Its drug sensitivity score is 13.2.

And the drug sensitivity score (MDA-MB-453 [2])?
The drug sensitivity score was 14.

`C[C@@H]1C=C2C(=O)O[C@@H]3CC[C@H](C1)[C@]23O` [Galiellalactone] was tested. Which drug sensitivity score (MDA-MB-453 [1]) did it give?
Its drug sensitivity score is 7.4.

What about the drug sensitivity score (MDA-MB-453 [2]) of the same compound?
The drug sensitivity score was 7.7.

Which results are given for `Cc1cccc(-c2nn3c(c2-c2ccnc4ccc(C(N)=O)cc24)CCC3)n1` [Galunisertib]?
drug sensitivity score (MDA-MB-453 [1]): 0; drug sensitivity score (MDA-MB-453 [2]): 0

For `Cc1cc(Nc2cc(CN3CCOCC3)c3nc(C)c(Cc4ccc(Cl)cc4F)n3n2)n[nH]1` [Gandotinib], which drug sensitivity score (MDA-MB-453 [1]) is on record?
The drug sensitivity score was 5.

And the drug sensitivity score (MDA-MB-453 [2])?
The drug sensitivity score was 1.2.

`CC(C)c1cc(-c2n[nH]c(=O)n2-c2ccc3c(ccn3C)c2)c(O)cc1O` [Ganetespib] was tested. Which drug sensitivity score (MDA-MB-453 [1]) did it give?
Its drug sensitivity score is 18.7.

And the drug sensitivity score (MDA-MB-453 [2])?
The drug sensitivity score was 18.5.

What does the source list for `CN(C)C1CCN(C(=O)c2ccc(NC(=O)Nc3ccc(-c4nc(N5CCOCC5)nc(N5CCOCC5)n4)cc3)cc2)CC1` [Gedatolisib]?
drug sensitivity score (MDA-MB-453 [1]): 22.9; drug sensitivity score (MDA-MB-453 [2]): 23.7

`COc1cc2ncnc(Nc3ccc(F)c(Cl)c3)c2cc1OCCCN1CCOCC1` [Gefitinib] was tested. Which drug sensitivity score (MDA-MB-453 [1]) did it give?
The drug sensitivity score was 6.9.

And the drug sensitivity score (MDA-MB-453 [2])?
Its drug sensitivity score is 8.

For `Nc1ccn([C@@H]2O[C@H](CO)[C@@H](O)C2(F)F)c(=O)n1` [Gemcitabine], which drug sensitivity score (MDA-MB-453 [1]) is on record?
The drug sensitivity score was 6.9.

And the drug sensitivity score (MDA-MB-453 [2])?
The drug sensitivity score was 6.

With `CCc1nc(C(N)=O)c(Nc2ccc(N3CCC(N4CCN(C)CC4)CC3)c(OC)c2)nc1NC1CCOCC1` [Gilteritinib] as the compound, how does the drug sensitivity score (MDA-MB-453 [1]) read?
Its drug sensitivity score is 0.

And the drug sensitivity score (MDA-MB-453 [2])?
The drug sensitivity score was 0.

`CCN(CC)Cc1ccc2cc(COC(=O)Nc3ccc(C(=O)NO)cc3)ccc2c1` [Givinostat] was tested. Which drug sensitivity score (MDA-MB-453 [1]) did it give?
Its drug sensitivity score is 11.

What about the drug sensitivity score (MDA-MB-453 [2]) of the same compound?
The drug sensitivity score was 10.3.

`CN1CC[C@@H](NC(=O)Nc2ccc(C#N)cc2)C[C@@H]1c1nc2ccccc2[nH]1` [Glasdegib] was tested. Which drug sensitivity score (MDA-MB-453 [1]) did it give?
The drug sensitivity score was 0.

And the drug sensitivity score (MDA-MB-453 [2])?
Its drug sensitivity score is 0.

With `COCCNCc1ccc(-c2cc3nccc(Oc4ccc(NC(=S)NC(=O)Cc5ccc(F)cc5)cc4F)c3s2)nc1` [Glesatinib] as the compound, how does the drug sensitivity score (MDA-MB-453 [1]) read?
Its drug sensitivity score is 0.7.

What about the drug sensitivity score (MDA-MB-453 [2]) of the same compound?
The drug sensitivity score was 0.5.

Which results are given for `CN1CCN(C2CCN(C(=O)Nc3cc(Oc4ccc(NC(=O)C5(C(=O)Nc6ccc(F)cc6)CC5)c(F)c4)ccn3)CC2)CC1` [Golvatinib]?
drug sensitivity score (MDA-MB-453 [1]): 0.3; drug sensitivity score (MDA-MB-453 [2]): 0

For `CC(C)C[C@H](NC(=O)[C@@H](COC(C)(C)C)NC(=O)[C@H](Cc1ccc(O)cc1)NC(=O)[C@H](CO)NC(=O)[C@H](Cc1c[nH]c2ccccc12)NC(=O)[C@H](Cc1cnc[nH]1)NC(=O)[C@@H]1CCC(=O)N1)C(=O)N[C@@H](CCCNC(=N)N)C(=O)N1CCC[C@H]1C(=O)NNC(N)=O` [Goserelin], which drug sensitivity score (MDA-MB-453 [1]) is on record?
Its drug sensitivity score is 0.

What about the drug sensitivity score (MDA-MB-453 [2]) of the same compound?
The drug sensitivity score was 0.

For `O=S(=O)(c1cccc2c(O)nccc12)N1CCCNCC1` [Hydroxyfasudil], which drug sensitivity score (MDA-MB-453 [1]) is on record?
The drug sensitivity score was 0.

What about the drug sensitivity score (MDA-MB-453 [2]) of the same compound?
Its drug sensitivity score is 0.2.

For `NC(=O)NO` [Hydroxyurea], which drug sensitivity score (MDA-MB-453 [1]) is on record?
Its drug sensitivity score is 2.3.

And the drug sensitivity score (MDA-MB-453 [2])?
Its drug sensitivity score is 1.6.

Which results are given for `COc1cc2c(cc1-c1c(C)noc1C)ncc1[nH]c(=O)n([C@H](C)c3ccccn3)c12` [I-BET151]?
drug sensitivity score (MDA-MB-453 [1]): 11.5; drug sensitivity score (MDA-MB-453 [2]): 11.4

`O=C(O)c1ccc(O)c2ncccc12` [IOX-1] was tested. Which drug sensitivity score (MDA-MB-453 [1]) did it give?
The drug sensitivity score was 1.6.

What about the drug sensitivity score (MDA-MB-453 [2]) of the same compound?
Its drug sensitivity score is 3.6.

What does the source list for `O=C(O)CNC(=O)c1c(O)c2ccccc2n(Cc2ccccc2)c1=O` [IOX-2]?
drug sensitivity score (MDA-MB-453 [1]): 0; drug sensitivity score (MDA-MB-453 [2]): 0

From the supplement of paper PMC7224384
